Reference: patent publication US9212168B2 (priority 2011, dated 2015)

Test system: HCV genotype 1a replicon
Assay: HCV genotype 1a replicon assay (NS3 protease activity readout)
Type: cell-based, hepatitis C virus
Conditions: for EC50: Hepatitis C virus, read-out: Genotype 1a, HCV genotype 1a replicon; for Genotype 1a: HCV genotype 1a replicon
How it was run: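 Genotype 1a subgenomic replicon cells (APC89, Huh7.5) were treated with compound dose-responses in G418-free medium, 0.5% DMSO final, for 48 or 72 hours at 37° C. Lysate NS3/4a protease activity measured with 15 μM FRET substrate, 20 min at 37° C (ex 340/em 509 nm); EC50 by 4-parameter fit.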

| Structure (SMILES) | EC50 | Genotype 1a |
| --- | --- | --- |
| COC(=O)N[C@@H](CCCCN)C(=O)N1C[C@@H](C)C[C@H]1c1nc(-c2ccc(-c3cc(Cl)c(NC(=O)c4ccc(N5CCN(C(=O)C(C)(C)C)C[C@H]5C)nc4)cc3OC(F)(F)F)cc2)c[nH]1 [Example 13-33] | < 0.1 nM | – |
| COC(=O)N[C@@H](C(=O)N1C[C@@H](C)C[C@H]1c1nc(-c2ccc(-c3cc(Cl)c(NC(=O)c4ccc(N5CCN(C(=O)C(C)(C)C)C[C@H]5C)nc4)cc3OC(F)(F)F)cc2)c[nH]1)C1C[C@@H](C)O[C@@H](C)C1 (stereo partly shown) [Example 13-43] | 1 to 10 nM | – |
| COC(=O)N[C@H](C(=O)N1C[C@@H](OC)C[C@H]1c1nc(-c2ccc(-c3cc(Cl)c(NC(=O)c4ccc(N5CCN(C(=O)NC(C)(C)C)C[C@H]5C)nc4)cc3OC(F)(F)F)cc2)c[nH]1)C1CCOCC1 [Example 28-12] | – | D (D represents pEC50>10 (EC50<0.1 nM)) |
| COC(=O)N[C@H](C(=O)N1C[C@@H](C)C[C@H]1c1nc(-c2ccc(-c3ccc(C(=O)Nc4ccc(N5CCN(C(=O)N(C)C)C[C@H]5C)nc4)cc3OC(F)(F)F)cc2)c[nH]1)C(C)C [Example 4-33] | – | C (C represents pEC50 between and 9 and about 10, (EC50 between 1 nM and 0.1 nM)) |
| COC(=O)N[C@H](C(=O)N1C[C@@H](O)C[C@H]1c1nc(-c2ccc(-c3cc(Cl)c(NC(=O)c4ccc(N5CCN(C(=O)C(C)(C)CO)C[C@H]5C)nc4)cc3OC(F)(F)F)cc2)c[nH]1)C(C)C [Example 26-9] | – | C (C represents pEC50 between and 9 and about 10, (EC50 between 1 nM and 0.1 nM)) |
| COC(=O)N[C@H](C(=O)N1C[C@@H](C)C[C@H]1c1nc(-c2ccc(-c3ccc(C(=O)Nc4ccc(N5C[C@H](C)N(C(=O)NC6CC6)C[C@H]5C)nc4)cc3OC(F)(F)F)cc2)c[nH]1)C(C)C [Example 4-24] | – | C (C represents pEC50 between and 9 and about 10, (EC50 between 1 nM and 0.1 nM)) |
| COC(=O)NC(C(=O)N1CC(C)CC1c1nc(-c2ccc(-c3cc(F)c(NC(=O)c4ccc(N5CCN(C(=O)C6CC6(Cl)Cl)CC5C)nc4)cc3Cl)cc2)c[nH]1)C(C)C (mixture of isomers) [Example 1-77] | – | D (D represents pEC50>10 (EC50<0.1 nM)) |
| CNC(=O)N1C[C@@H](C)N(c2ccc(C(=O)Nc3cc(OC(F)(F)F)c(-c4ccc(-c5c[nH]c([C@@H]6C[C@H](C)CN6C(=O)[C@@H](NC(=O)OC)C6CC6)n5)cc4)cc3Cl)cn2)C[C@@H]1C [Example 7-3] | – | D (D represents pEC50>10 (EC50<0.1 nM)) |
| COC(=O)N[C@H](C(=O)N1C[C@@H](N(C)CCN)C[C@H]1c1nc(-c2ccc(-c3cc(Cl)c(NC(=O)c4ccc(N5CCN(C(=O)C(C)(C)C)C[C@H]5C)nc4)cc3OC(F)(F)F)cc2)c[nH]1)C(C)C [Example 15-8] | 0.1 to 1 nM | – |
| COC(=O)N[C@H](C(=O)N1C[C@@H](C)C[C@H]1c1nc(-c2ccc(-c3cc(Cl)c(NC(=O)c4ccc(N5CCN(C(=O)C(C)(C)CNC(C)=O)C[C@H]5C)nc4)cc3OC(F)(F)F)cc2)c[nH]1)C(C)C [Example 12-42] | < 0.1 nM | – |
| COC(=O)N[C@H](C(=O)N1C[C@@H](C)C[C@H]1c1nc(-c2ccc(-c3cc(Cl)c(NC(=O)c4ccc(N5CCN(C(=O)C(C)(C)CNC(=O)C6CC6)C[C@H]5C)nc4)cc3OC(F)(F)F)cc2)c[nH]1)C(C)C [Example 12-37] | 0.1 to 1 nM | – |
| COC(=O)N[C@H](C(=O)N1C[C@@H](C)C[C@H]1c1nc(-c2ccc(-c3cc(Cl)c(NC(=O)c4ccc(N5CCN(C(=O)C6CC(N)C6)C[C@H]5C)nc4)cc3OC(F)(F)F)cc2)c[nH]1)C(C)C (stereo partly shown) [Example 12-52] | 0.1 to 1 nM | – |
| COC(=O)N[C@H](C(=O)N1C[C@@H](C)C[C@H]1c1nc(-c2ccc(-c3cc(Cl)c(NC(=O)c4ccc(N5CCN(C(=O)C(C)(C)CNC(=O)C(C)(C)C)C[C@H]5C)nc4)cc3OC(F)(F)F)cc2)c[nH]1)C(C)C [Example 12-38] | 0.1 to 1 nM | – |
| CNC(=O)N1CCC[C@@H]1C(=O)N1C[C@@H](C)N(c2ccc(C(=O)Nc3cc(OC(F)(F)F)c(-c4ccc(-c5c[nH]c([C@@H]6C[C@H](C)CN6C(=O)[C@@H](NC(=O)OC)C(C)C)n5)cc4)cc3Cl)cn2)C[C@@H]1C [Example 1-44] | – | D (D represents pEC50>10 (EC50<0.1 nM)) |
| COC(=O)N[C@H](C(=O)N1C[C@@H](OC)C[C@H]1c1nc(-c2ccc(-c3ccc(NC(=O)c4ccc(N5CCN(C(=O)C(C)(C)CO)C[C@H]5C)nc4)cc3OC(F)(F)F)cc2)c[nH]1)C(C)C [Example 27-7] | – | D (D represents pEC50>10 (EC50<0.1 nM)) |
| CCC(=O)N1CCC[C@@H]1C(=O)N1CCN(c2ccc(C(=O)Nc3cc(OC(F)(F)F)c(-c4ccc(-c5c[nH]c([C@@H]6C[C@H](C)CN6C(=O)[C@@H](NC(=O)OC)C(C)C)n5)cc4)cc3Cl)cn2)[C@H](C)C1 [Example 1-48] | – | D (D represents pEC50>10 (EC50<0.1 nM)) |
| COC(=O)N[C@H](C(=O)N1C[C@@H](OC)C[C@H]1c1nc(-c2ccc(-c3cc(Cl)c(NC(=O)c4ccc(N5CCN(C(=O)C(C)(C)CO)C[C@H]5C)nc4)cc3C(F)(F)F)cc2)c[nH]1)C1CCOCC1 [Example 19-13] | – | D (D represents pEC50>10 (EC50<0.1 nM)) |
| COC(=O)NC(C(=O)N1C(C)CCC1c1nc(-c2ccc(-c3ccc(C(=O)Nc4ccc(N5CCN(C(=O)C6CC6(C)C)CC5C)nc4)cc3OC(F)(F)F)cc2)c(Cl)[nH]1)C(C)C (stereo not shown) [Example 18-1] | – | C (C represents pEC50 between and 9 and about 10, (EC50 between 1 nM and 0.1 nM)) |
| COC(=O)NC(C(=O)N1CC(C)CC1c1nc(-c2ccc(-c3cc(F)c(NC(=O)c4ccc(N5CCN(C(=O)C6CC6(F)Cl)CC5C)nc4)cc3OC(F)(F)F)cc2)c[nH]1)C(C)C (mixture of isomers) [Example 1-60] | – | D (D represents pEC50>10 (EC50<0.1 nM)) |
| COC(=O)N[C@H](C(=O)N1C[C@@H](O)C[C@H]1c1nc(-c2ccc(-c3cc(Cl)c(NC(=O)c4ccc(N5CCN(C(=O)C(C)(C)C)C[C@H]5C)nc4)cc3OC(F)(F)F)cc2)c[nH]1)C1CCOCC1 [Example 26-10] | – | A (A represents a pEC50 value between 6 and 8 (EC50 between 1 μM and 10 nM)) |
| COC(=O)N[C@H](C(=O)N1C[C@@H](N)C[C@H]1c1nc(-c2ccc(-c3ccc(C(=O)Nc4ccc(N5CCN(C(=O)C6CC6(C)C)C[C@H]5C)nc4)cc3)cc2)c[nH]1)C(C)C (stereo partly shown) [Example 6-4] | 10 to 1000 nM | – |
| COCC1(C(=O)N2CCN(c3ccc(C(=O)Nc4cc(OC(F)(F)F)c(-c5ccc(-c6c[nH]c([C@@H]7C[C@H](C)CN7C(=O)[C@@H](NC(=O)OC)C(C)C)n6)cc5)cc4Cl)cn3)[C@H](C)C2)CCC1 [Example 12-45] | < 0.1 nM | – |
| [2H]C([2H])([2H])C1(C([2H])([2H])[2H])C[C@@H]1C(=O)N1CCN(c2ccc(NC(=O)c3ccc(-c4ccc(-c5c[nH]c([C@@H]6C[C@H]([S+](C)[O-])CN6C(=O)[C@@H](NC(=O)OC)C(C)C)n5)cc4)c(OC(F)(F)F)c3)cn2)[C@H](C)C1 (stereo partly shown) [Example 6-20] | 1 to 10 nM | – |
| CCCCOC(=O)N[C@H](C(=O)N1C[C@@H](C)C[C@H]1c1nc(-c2ccc(-c3cc(Cl)c(NC(=O)c4ccc(N5C[C@H](C)N(C(=O)NC)C[C@H]5C)nc4)cc3OC(F)(F)F)cc2)c[nH]1)C(C)C [Example 7-4] | – | B (B represents pEC50 between 8 and 9 (EC50 between 1 and 10 nM)) |
| COC(=O)N[C@H](C(=O)N1C[C@@H](N(C)C)C[C@H]1c1nc(-c2ccc(-c3ccc(C(=O)Nc4ccc(N5CCN(C(=O)[C@]6(C)CCCN6C(=O)[C@@H](NC(=O)OC)C(C)C)C[C@H]5C)nc4)cc3)cc2)c[nH]1)C(C)C [Example 6-3] | 0.1 to 1 nM | – |
